Measurements from ChEMBL document CHEMBL3297689, “Phenylalanine-Based Inactivator of AKT Kinase: Design, Synthesis, and Biological Evaluation” (ACS Med Chem Lett, 2014).
Active and inactive are the calls of the source. No cut-off for these calls is given here.

Experiments:
[1] = Growth inhibition of human HCT116 cells after 72 hrs by coulter counter method; assay type: functional, cell-based; conditions: HCT-116, 72 h
NCI-H460 = experiment: Growth inhibition of human NCI-H460 cells after 72 hrs by coulter counter method; assay type: functional, cell-based; conditions: NCI-H460, 72 h
[2] = target: T1, RAC-alpha serine/threonine-protein kinase (Homo sapiens, UniProt P31749); experiment: Inhibition of AKT1 (unknown origin) after 1 hr by Z'-LYTE kinase assay in presence of 75 uM ATP
[3] = target: T1, RAC-alpha serine/threonine-protein kinase; experiment: Binding affinity to AKT1 (unknown origin) assessed as covalent modification at Cys310 residue by mass spectrometry

T1 sequence (P31749 whole entry): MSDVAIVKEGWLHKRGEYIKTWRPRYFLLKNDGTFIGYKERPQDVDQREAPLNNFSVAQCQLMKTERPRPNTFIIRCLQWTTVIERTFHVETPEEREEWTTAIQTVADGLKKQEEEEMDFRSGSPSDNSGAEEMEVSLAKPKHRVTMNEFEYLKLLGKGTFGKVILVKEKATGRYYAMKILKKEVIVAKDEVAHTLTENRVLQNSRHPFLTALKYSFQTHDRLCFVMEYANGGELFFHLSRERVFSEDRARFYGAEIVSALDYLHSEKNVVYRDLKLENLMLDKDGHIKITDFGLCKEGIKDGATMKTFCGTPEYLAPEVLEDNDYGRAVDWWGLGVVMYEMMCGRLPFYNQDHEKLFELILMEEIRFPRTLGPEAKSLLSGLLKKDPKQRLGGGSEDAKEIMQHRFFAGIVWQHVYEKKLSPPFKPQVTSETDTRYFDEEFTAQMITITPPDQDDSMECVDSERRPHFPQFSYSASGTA

SMILES	IC50 [1] [µM]	IC50 (NCI-H460) [µM]	IC50 [2] [µM]	Activity [3]
CCC(=O)[C@H](Cc1ccccc1)NC(=O)OC(C)(C)C	> 100	> 100	> 100	
CC(C)(C)OC(=O)NN(Cc1ccccc1)C(=O)CBr			24.7	
CCn1c(-c2nonc2N)nc2c(C#CC(C)(C)O)ncc(OC[C@H]3CCCNC3)c21 [GSK-690693]	8.2	5.4		
C=CC(=O)[C@H](Cc1ccccc1)NC(=O)OCc1cn(CCCCCCNC(=S)Nc2ccc(-c3c4ccc(=O)cc-4oc4cc(O)ccc34)c(C(=O)O)c2)nn1				Active
CC(C)(C)OC(=O)N[C@@H](Cc1ccccc1)C(=O)NCCN1C(=O)C=CC1=O			4.48	
CC(C)(C)OC(=O)NN(Cc1ccccc1)C(=O)CCl			> 100	
NC1(c2ccc(-c3nc4ccn5c(=O)[nH]nc5c4cc3-c3ccccc3)cc2)CCC1 [MK-2206]	7.5	5.4		
